Assay results reported in patent publication US20170339949A1, “SUGAR SURFACTANTS AND USE THEREOF IN AGROCHEMICAL COMPOSITIONS” (Clariant International Ltd., priority 2014, published 2017).

Legend:
[1] = Dynamic surface tension (Krüss PocketDyne BP2100); type: physicochemical; details: for Surface tension: 24.6° C.
From the text: In the case of plants that are difficult to wet, such as the cereal plants wheat, barley, triticale, rye and oats, in the case of further large-scale crops corn, rice, soya and oilseed rape, and also in the case of almost all weed grasses and numerous dicotyledonous weeds that are difficult to control, such as Chenopodium album or Euphorbium heterophyllum, the promotion of the adsorption of the spray liquid on the green parts of the plant is of crucial significance. This wetting agent effect was therefore also determined for the glucamides.
For a given application technique or parameters (nozzle, pressure, water application rate, distance from the plant surface), the value for the dynamic surface tension in [mN/m] correlates well with the adhesion on plants that are difficult to wet such as barley (or cereals in general) and weed grasses. A value of 50 mN/m (at 20-21° C.) with respect to water (72.8 mN/m) results in an improvement in the adhesion from “zero adhesion” to about 50% (Baur P, Pontzen R 2007. Basic features of plant surface wettability and deposit formation and the impact of adjuvants. In: R E Gaskin ed. Proceeding of the 8th International Symposium on Adjuvants for Agrochemicals. Publisher: International Society for Agrochemical Adjuvants (ISAA), Columbus, Ohio, USA). A value below 60 mN/m at 200 ms gives visibly better adsorption of aqueous spray liquids; in the case of standard flat jet nozzles, optimal wetting is achieved.
The values for dynamic surface tension (Krüss PocketDyne BP2100, T 24.6° C.) are shown below at for the linear C810 glucamide and the decene glucamide and a pelargonamide.

apple leaf cuticles = experiment: Membrane penetration test with apple leaf cuticles for mesotrione; type: in vitro ADME; details: summary in words of Table 1
From the text: Increasing the absorption of systemic active ingredients using the example of mesotrione and test system for measurement of the promotion of penetration of active ingredients
Surfactants can promote the absorption of (active) ingredients through membranes such as skin, films or the plant cuticle. As a “finite-dose” application, it is known for the single administration or application of a solution, cream, gel etc. to a membrane that the absorption of active ingredient can be influenced by some additives such as surfactants even after wetting. This effect is independent of the interfacial effect in water, is often highly concentration-dependent and takes place for the most part after evaporation of water and any solvents present rather than as a result of the interaction, for example, with active ingredient, membrane and environmental factors. […]
The potential of the test substances, which is independent of the surfactant action, to promote foliar absorption of active agrochemical ingredients was determined in membrane penetration tests with apple leaf cuticles for mesotrione. […] At regular intervals, aliquot samples were taken and the proportion of active ingredient penetrated was determined by HPLC. During the experiment, the temperature in the system (block, diffusion cells, liquids, etc.) and the air humidity above the spray coating on the cuticle were known exactly and were monitored. […]

[2] = weak organic acid; cited from earlier work

| Surface tension ([1]; conc. 0.6 g/L, 20 ms) [mN/m] | Surface tension ([1]; conc. 0.6 g/L, 50 ms) [mN/m] | Surface tension ([1]; conc. 0.6 g/L, 100 ms) [mN/m] | Surface tension ([1]; conc. 0.6 g/L, 200 ms) [mN/m] | Surface tension ([1]; conc. 1.25 g/L, 20 ms) [mN/m] | Surface tension ([1]; conc. 1.25 g/L, 50 ms) [mN/m] | Surface tension ([1]; conc. 1.25 g/L, 100 ms) [mN/m] | Surface tension ([1]; conc. 1.25 g/L, 200 ms) [mN/m] | Surface tension ([1]; conc. 2.5 g/L, 20 ms) [mN/m] | Surface tension ([1]; conc. 2.5 g/L, 50 ms) [mN/m] | Surface tension ([1]; conc. 2.5 g/L, 100 ms) [mN/m] | Surface tension ([1]; conc. 2.5 g/L, 200 ms) [mN/m] | Surface tension ([1]; conc. 5 g/L, 20 ms) [mN/m] | Surface tension ([1]; conc. 5 g/L, 50 ms) [mN/m] | Surface tension ([1]; conc. 5 g/L, 100 ms) [mN/m] | Surface tension ([1]; conc. 5 g/L, 200 ms) [mN/m] | Suitability as wetting agent compared to Synergen GA (C810) ([1]; summary in words of dynamic surface tension results) | SMILES | Promotion of penetration of mesotrione compared to the linear mixture of C8 and C10 glucamide (apple leaf cuticles) | pKa [2] |
| --- | --- | --- | --- | --- | --- | --- | --- | --- | --- | --- | --- | --- | --- | --- | --- | --- | --- | --- | --- |
| 70.2 | 68.8 | 67.7 | 67.1 | 66.0 | 63.7 | 62.6 | 61.1 | 59.1 | 56.3 | 55.3 | 53.8 | 47.7 | 45.6 | 45.2 | 44.3 | – | CCCCCCCCC(=O)N(C)C[C@H](O)[C@@H](O)[C@H](O)[C@H](O)CO [N-Methyl-N-nonanoylglucamine, N-methyl-N-nonanoylglucamine] | likewise falls short | – |
| – | – | – | – | – | – | – | – | – | – | – | – | – | – | – | – | – | CS(=O)(=O)c1ccc(C(=O)C2C(=O)CCCC2=O)c([N+](=O)[O-])c1 [Mesotrione, mesotrione] | – | 3.1 |
| 70.2 | 68.9 | 67.6 | 67.4 | 66.4 | 63.7 | 61.8 | 61.0 | 59.7 | 56.6 | 55.5 | 54.1 | 50.5 | 48.3 | 47.7 | 46.6 | wetting agent of comparable suitability | C=CCCCCCCCC(=O)N(C)C[C@H](O)[C@@H](O)[C@H](O)[C@H](O)CO [N-Methyl-N-dec-9-enoylglucamine, N-methyl-N-dec-9-enoylglucamine] | higher promotion of penetration of mesotrione | – |
